Laboratory results reported in US8008260B2, “Methods of protecting against apoptosis using lipopeptides” (Cleveland Clinic Foundation, priority 2005, dated 2011).
Peptide text beside a SMILES is read from it. * marks the point of attachment. Propyl(2R-PamO,3-PamO) = CCCCCCCCCCCCCCCC(=O)OC[C@H](C*)OC(=O)CCCCCCCCCCCCCCC

Experiments:
ICR mice [1] = experiment: Immune status of mice rescued from TBI (spleen and thymus weight, histology, flagellin immunization); assay type: in vivo
Procedure: To check the status of their immune systems, ICR mice were exposed to lethal (10 Gy) or non-lethal (6 Gy) doses of TBI 24 hr after they had been injected (i.m.) with 3 μg CBLB601/mouse or PBS. Groups of five mice from each condition were sacrificed very three days and their spleens and thymuses were removed and weighed. The weights of the spleens were normalized to the body weights of the corresponding animals and the results are presented in FIG. 15. PBS-treated mice that were exposed to 6 Gy of radiation took about 13-14 days to restore their spleens to normal weights, whereas CBLB601-treated mice exposed to 6 Gy of radiation had normal spleen weights by day 8. […] It took a longer period of time (˜30 days) to restore the thymuses to normal weights (not shown).
The spleens and thymuses from control and CBLB601-injected mice were examined microscopically for morphological changes at 3, 10 and 30 days after irradiation. […] There was no evidence of recovery of the splenic white pulp depletion in either group at day 10. Regenerative lymphoid hyperplasia in the thymus was evident in both groups at day 10, with the regeneration slightly more advanced in the control that in the CBLB601-treated mice.
To test the immune response of mice rescued from a lethal dose of gamma-irradiation (10 Gy of TBI) by CBLB601, several groups of such mice were subjected to immunization with a strong antigen, Salmonella flagellin. The mice were first immunized at 8, 18, or 20 weeks after irradiation, at which time they were 18, 25, and 33 weeks of age, respectively. Non-irradiated naïve mice at 29 weeks of age were used as a positive control for the immune response. The mice received a boost of flagellin one week after the first immunization, and another boost three weeks after the 2nd boost; anti-flagellin antibody titers were measured in mouse serum. To test the secondary immune response, the mice were bled again a month later to insure reduction of the antibody titers. This was followed by a 3rd boost of the antigen injection and measurement of anti-flagellin antibodies titers 10 days later. At the time of the 3rd boost, the irradiation mice were 38, 30, and 23 weeks old, and the control mice were 34 weeks old.

ICR mice [2] = experiment: NOAEL determination, i.p. injection of increasing doses, two-week observation; assay type: in vivo
Procedure: The dose of NOAEL (No Obvious Adverse Effects Level) was determined by injecting intraperitoneally (i.p) ICR mice with the increasing doses of CBLB601 (0.3, 1, 3, 10, 30, 60, 100 μg/mouse). Control mice were injected with PBS. […] During the first week they were weighed daily. […] Thus, NOAEL for CBLB601 was determined to be 30 μg/mouse.

Compound: CCCCCCCCCCCCCCCC(=O)OC[C@H](CSC[C@H](N)C(=O)N[C@@H](CO)C(=O)N[C@@H](CCCCN)C(=O)N[C@@H](CCCCN)C(=O)N[C@@H](CCCCN)C(=O)N[C@@H](CCCCN)C(=O)O)OC(=O)CCCCCCCCCCCCCCC [CBLB601, R-PAM2C-SKKKK] (H-C(Propyl(2R-PamO,3-PamO))SKKKK-OH)
- time to restore the thymuses to normal weights (ICR mice [1]; 3 μg/mouse i.m. 24 hr before TBI, not shown): ~30 days
- day by which spleen weights were normal (ICR mice [1]; 6 Gy TBI, 3 μg/mouse i.m. 24 hr before): ≤ 8 days
- day by which spleen weights were completely restored (ICR mice [1]; 10 Gy TBI, 3 μg/mouse i.m. 24 hr before): 13 to 14 days
- spleen histology, extramedullary hematopoiesis (ICR mice [1]; 10 days post-irradiation, 10 Gy): mild to moderate multifocal extramedullary hematopoiesis (EMH)
- humoral immune response against flagellin (ICR mice [1]; mice rescued from 10 Gy TBI, immunized 8, 18 or 20 weeks after irradiation): robust humoral immune response against flagellin that was indistinguishable from that of the naïve control mice
- differences between treated and control mice (ICR mice [2]; 30 μg dose i.p.): no noticeable differences
- morbidity (ICR mice [2]; 60 μg dose i.p., around 3-4 days after treatment): signs of morbidity, such as slow motion and scruffy fur
- mortality (ICR mice [2]; 100 μg/mouse i.p., 1-2 days post-treatment): Mortality was observed
- body weight versus control mice (ICR mice [2]; 0.3-100 μg/mouse i.p., weighed daily in first week): no differences in weight
- NOAEL (No Obvious Adverse Effects Level) (ICR mice [2]; i.p., ICR mice): 30 μg/mouse
